Holding throughout (assay type): cell-based
In data set [1] the test system is MV4-11 cells. The experiment in a line: Anti-proliferative effect, CellTiter-Glo assay. As to conditions: MV4-11, CellTiter-Glo, 72 h incubation, 5 μM and below. On the procedure:
The anti-proliferative effects of representative compounds were measured using the CellTiter-Glo assay (Promega). MV4-11 cells were incubated in a sterile, white, clear-bottomed 384-well cell-culture microplate (Greiner Bio-one), at 2× concentration in RPMI media and a volume of 25 μl. The next day, test compounds were serially diluted in RPMI media to 2× concentration, then added to cells to make a final volume of 50 μl. After a 72 h incubation 25 μl of CellTiter-Glo reagent was added to each well. Following 15 minute incubation the luminescence signal was read on a Pherastar FS. The final concentration of assay components are as follows: 3×10^5 cells/mL, 0.05% DMSO, 5 μM and below compound. Data (FIG. 11) was processed and dose-response curves generated using Prism 8 (Graphpad).
Background: Cellular ATP, detected with luciferase, serves as a proxy for viable cell number.

Data set [2] has as its target T1, Brd3 (Homo sapiens, UniProt Q15059). Description: Concentration-dependent BET degradation, immunoblot, HEK293 cells. Details: endogenous in cells; host or cells: HEK293. The settings on record: HEK293, Brd3, 6 h treatment, 1 nM-10 μM; for Dmax: read-out: Dmax (%) maximum degradation observed. Put shortly: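 6 h compound exposure, 1 nM-10 μM, 0.1% DMSO final; HEK293 and HeLa in DMEM/10% FBS. RIPA lysis, equal protein loaded, SDS-PAGE/nitrocellulose western, IRDye 800CW secondaries. Tubulin-normalized bands as % vehicle; mean±SEM, n=2.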
(In general: In western blotting, separated proteins are transferred to a membrane and probed.)

Data set [3] addresses Brd2 (Homo sapiens, UniProt P25440). The experiment in a line: Concentration-dependent BET degradation, immunoblot, HeLa cells. Details: endogenous in cells; host or cells: HeLa. As to conditions: Brd2, 6 h treatment, 1 nM-10 μM; for Dmax: read-out: Dmax (%) maximum degradation observed. How it is done: (§1) Cell culture. HeLa (CCL-2) and HEK293 (CRL-1573) cells were purchased from ATCC and cultured in DMEM medium (Gibco) supplemented with 10% FBS, 100 μg/mL penicillin/streptomycin and L-glutamine. Cells were grown at 37° C. and 5% CO2, and were kept no longer than 30 passages. All cell lines were routinely tested for mycoplasma contamination using MycoAlert kit from Lonza.
(§2) Immunoblotting. proteins were separated by SDS-PAGE on NuPage 4-12% Bis-Tris gels, followed by transfer to Amersham Protran 0.45 NC nitrocellulose membrane (GE Healthcare) using wet transfer. Membranes were blocked using 5% w/v milk in Tris-buffered saline (TBS) with 0.1% Tween-20. Blots were probed (overnight at 4° C.) using anti-Brd2 (Abcam ab139690, 1:2,000 dilution), anti-Brd3 (Abcam ab50818, 1:500 dilution), and anti-Brd4 (Abcam ab128874, 1:1,000 dilution) primary antibodies, as appropriate. The next day, blots were washed with TBST and incubated (1 hr at RT) with anti-Tubulin hFAB-rhodamine (BioRad, 12004166) primary antibody, and either anti-rabbit IRDye 800CW (Licor 1:10,000 dilution) or anti-mouse IRDye 800CW (Licor 1:10,000 dilution) secondary antibody. Blots were developed using a Bio-Rad ChemiDoc MP Imaging System, and band quantification was performed using Image Studio software (LiCor). Band intensities were normalized to the tubulin loading control and reported as % of the average 0.1% DMSO vehicle intensity. Degradation data was plotted and analysed using Prism (Graphpad, version 8).
(§3) HeLa (5×10^5) and HEK293 (1×10^6) cells were seeded in standard 6-well plates (2 mL medium) overnight before treatment with compounds at the desired concentration (1 nM-10 μM), with a final DMSO concentration of 0.1% v/v. After 6 h treatment time, cells were washed with DPBS (Gibco) and lysed using 85 μL RIPA buffer (Sigma-Aldrich) supplemented with cOmplete Mini EDTA-free protease inhibitor cocktail (Roche) and benzonase. Lysates were clarified by centrifugation (20,000g, 10 min, 4° C.) and the total protein content of the supernatant was quantified using a Bradford colorimetric assay. Samples were prepared using equal amounts of total protein and LDS sample buffer (Invitrogen.
(§4) Representative blots in FIG. 3 show depletion of Brd2, Brd3 and Brd4 protein levels following treatment with increasing concentrations of representative compounds. Band intensities were normalized to the β-tubulin loading control and reported as % of the average 0.1% DMSO vehicle intensity, with each point representing mean±SEM of two independent experiments (n=2). Degradation data was plotted and analysed using Prism (Graphpad, version 8)

In data set [4] the target is T1, Brd3. The data set is described as above. Details: endogenous in cells; host or cells: HeLa. As to conditions: Brd3, 6 h treatment, 1 nM-10 μM; for Dmax: read-out: Dmax (%) maximum degradation observed. On the procedure: as §1, §2, §3, §4
The target of data set [5] is T2, Brd4 (Homo sapiens, UniProt O60885).
T2 construct: endogenous in cells; host or cells: HEK293, HAP1, MV4-11
Description: Proteasome dependency of Brd4 degradation in HEK293 cells (bortezomib pre-treatment). The settings on record: 6 h. How it is done: as §2
(§5) HEK293 (1×10^6) cells were seeded in standard 6-well plates (2 mL medium) overnight before pre-treatment with 10 μM bortezomib. After a 0.5 h pre-incubation time, cells were subsequently treated with vehicle, 1 μM MZ1 or 1 μM 05IB6, yielding a final overall DMSO concentration of 0.2% v/v. After 6 h incubation, cells were washed with DPBS (Gibco) and lysed using 85 μL RIPA buffer (Sigma-Aldrich) supplemented with cOmplete Mini EDTA-free protease inhibitor cocktail (Roche) and benzonase. Lysates were clarified by centrifugation (20,000 g, 10 min, 4° C.) and the total protein content of the supernatant was quantified using a Bradford colorimetric assay. Samples were prepared using equal amounts of total protein and LDS sample buffer (Invitrogen).

For data set [6], the target named is T2, Brd4. The experiment in a line: Mechanistic evaluation of Brd4 degradation in HEK293 cells (degrasyn or I-BET726 pre-treatment). As to conditions: 6 h. How it is done: as §2
as §5, with “with inhibitors (5” for “with 10”, “μM degrasyn or 1 μM I-BET726).” for “μM bortezomib.”, “vehicle, 0.1” for “vehicle, 1”, “or 0.1” for “or 1”, “μM 05IB9,” for “μM 05IB6,”

T1 sequence (Q15059 whole entry): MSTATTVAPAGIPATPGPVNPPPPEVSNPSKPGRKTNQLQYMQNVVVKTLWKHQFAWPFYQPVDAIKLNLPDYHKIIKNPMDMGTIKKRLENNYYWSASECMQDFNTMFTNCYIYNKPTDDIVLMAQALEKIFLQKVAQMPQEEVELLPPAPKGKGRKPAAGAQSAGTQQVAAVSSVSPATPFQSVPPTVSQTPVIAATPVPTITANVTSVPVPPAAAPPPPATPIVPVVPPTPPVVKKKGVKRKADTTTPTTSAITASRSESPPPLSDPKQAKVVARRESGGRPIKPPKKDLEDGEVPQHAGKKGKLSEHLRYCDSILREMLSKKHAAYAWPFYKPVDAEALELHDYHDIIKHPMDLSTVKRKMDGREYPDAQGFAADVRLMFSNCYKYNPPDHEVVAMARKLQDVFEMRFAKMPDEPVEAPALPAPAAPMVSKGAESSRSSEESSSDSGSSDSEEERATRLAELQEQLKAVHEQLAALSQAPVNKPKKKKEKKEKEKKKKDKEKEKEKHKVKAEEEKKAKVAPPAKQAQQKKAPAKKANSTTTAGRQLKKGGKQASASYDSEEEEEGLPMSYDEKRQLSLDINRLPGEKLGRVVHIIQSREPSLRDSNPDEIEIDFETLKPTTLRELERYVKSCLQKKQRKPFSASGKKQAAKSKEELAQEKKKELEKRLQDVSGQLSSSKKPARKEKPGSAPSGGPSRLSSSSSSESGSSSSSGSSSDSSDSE
Brd2, sequence (P25440 whole entry): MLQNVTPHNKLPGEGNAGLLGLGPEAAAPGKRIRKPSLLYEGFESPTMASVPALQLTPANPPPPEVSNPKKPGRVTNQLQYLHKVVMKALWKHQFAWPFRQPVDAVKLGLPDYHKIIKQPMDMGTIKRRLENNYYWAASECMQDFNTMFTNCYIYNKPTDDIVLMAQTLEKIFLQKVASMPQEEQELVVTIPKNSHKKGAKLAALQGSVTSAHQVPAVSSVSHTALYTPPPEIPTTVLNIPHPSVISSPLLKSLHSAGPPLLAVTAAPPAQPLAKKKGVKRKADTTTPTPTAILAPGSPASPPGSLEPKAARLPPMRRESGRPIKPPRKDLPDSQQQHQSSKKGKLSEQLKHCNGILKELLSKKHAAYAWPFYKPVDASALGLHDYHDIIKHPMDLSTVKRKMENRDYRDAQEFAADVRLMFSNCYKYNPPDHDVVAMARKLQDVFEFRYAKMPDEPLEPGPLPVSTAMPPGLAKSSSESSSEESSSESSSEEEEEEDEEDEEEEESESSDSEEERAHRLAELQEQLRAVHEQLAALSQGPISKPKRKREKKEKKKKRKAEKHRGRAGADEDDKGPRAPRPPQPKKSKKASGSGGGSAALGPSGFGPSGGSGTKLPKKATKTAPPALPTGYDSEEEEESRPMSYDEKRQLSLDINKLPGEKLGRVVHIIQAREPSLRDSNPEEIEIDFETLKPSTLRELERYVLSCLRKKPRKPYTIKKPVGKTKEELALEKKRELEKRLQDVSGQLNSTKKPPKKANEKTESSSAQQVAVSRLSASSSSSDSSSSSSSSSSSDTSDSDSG

With `CCCC(NC(=O)/C(C#N)=C/c1cccc(Br)n1)c1ccc(OCC=NOCC(=O)NCCOCCOCCOCCOCCOCCNC(=O)c2ccc3c(c2)[C@H](Nc2ccc(Cl)cc2)C[C@H](C)N3C(C)=O)cc1` (stereo partly shown) [Example 05IB3], the “cytotoxicity profile (anti-proliferative effect)” value (“cytotoxicity profile” for short) in data set [1] was “distinct from I-BET726 and inactive 05IB11”. Also, the DC50 (in general, the concentration at which degradation of the target reaches its halfway point) in data set [2] was no more than 0.05 µM; in data set [3], 0.051 to 0.5 µM; in data set [4], 0.051 to 0.5 µM. The Dmax in data set [2], in data set [3] and in data set [4] was no less than 71% each time.

Take `CCCC(NC(=O)/C(C#N)=C/c1cccc(Br)n1)c1ccc(OCCOCCOCCOCCOCCOCCOCCNC(=O)c2ccc(-c3ccc4c(c3)[C@H](Nc3ccc(Cl)cc3)C[C@H](C)N4C(C)=O)cc2)cc1` (stereo partly shown) [Example 05IB6]: the “Brd4 degradation in the presence of bortezomib” value in data set [5] (HEK293, 1 μM compound, 0.5 h pre-treatment with 10 μM bortezomib) is on record as “completely blocked”. In addition, the Brd4 protein levels result in data set [5] (HEK293, 1 μM) is reported as “depletion”. Besides, the “cytotoxicity profile” value in data set [1] is “distinct from I-BET726 and inactive 05IB11”. Besides, the DC50 is 0.051 to 0.5 µM in data set [2], no more than 0.05 µM in data set [3] and no more than 0.05 µM in data set [4]. Also, the figures for the Dmax in data set [2], in data set [3] and in data set [4] were 51 to 70%, no less than 71% and no less than 71%, respectively.

Consider `CCCC(NC(=O)/C(C#N)=C/c1nccs1)c1ccc(OCCOCCOCCOCCOCCOCCOCCNC(=O)c2ccc(-c3ccc4c(c3)[C@H](Nc3ccc(Cl)cc3)C[C@H](C)N4C(C)=O)cc2)cc1` (stereo partly shown) [Example 05IB9], for which, in data set [1], the “cytotoxicity profile” value is “distinct from I-BET726 and inactive 05IB11”. Further, the results for the DC50 in data set [2], in data set [3] and in data set [4] were no more than 0.05 µM, 0.051 to 0.5 µM and no more than 0.05 µM, respectively. For the same compound, the values for the Dmax in data set [2], in data set [3] and in data set [4] were 51 to 70%, no less than 71% and 51 to 70%, respectively. Also, the “Brd4 degradation in the presence of degrasyn or I-BET726” value in data set [6] (HEK293, 0.1 μM compound, 0.5 h pre-treatment with 5 μM degrasyn or 1 μM I-BET726) is given as “completely blocked in the presence of either degrasyn or I-BET726”. Moreover, in data set [6] (HEK293, 0.1 μM), the Brd4 protein levels result was “depletion”.

These data come from patent publication US20210283139A1, “BIFUNCTIONAL MOLECULES FOR TARGETING UCHL5” (AMPHISTA THERAPEUTICS LTD, priority 2018, published 2021).
